The values below come from patent publication EP0479834B1, “COMPETITIVE ENZYME ASSAY FOR DETERMINATION OF PHOSPHOTHIOATE INSECTICIDES” (COMMONWEALTH SCIENTIFIC AND INDUSTRIAL RESEARCH ORGANISATION, priority 1989, dated 1991).

SMILES strings stand for the structures.

What all share (type): binding
Assay [1] deals with Antibody F7 (phosphorothioate-specific antibody; control pesticide chlorpyrifos-methyl). As to the kind of experiment: competition ELISA, assay format 2 (pesticide-macromolecule conjugate on the solid phase, antibody in solution). Conditions: Antibody F7, assay format 2, control pesticide CP; 30 min antibody incubation. As for the experimental part: The solid phase is coated with a pesticide-macromolecule conjugate. For the results listed in Table 1, the immunogen conjugate of chlorpyrifos-methyl (F7) was used. Following pretreatment to minimize non-specific binding of conjugate by treatment with a suitable protein or detergent, the sample to be analyzed is added. The grain, food or other sample may either be extracted in methanol, ethanol or other polar water-miscible solvent, or otherwise be extracted with a volatile organic solvent such as dichloromethane or acetone. The solvent may be removed by evaporation and the residue redissolved in a smaller volume of methanol. The extract or reconstituted residue is diluted in a protein and detergent - containing buffer and applied to the solid phase and antibody is added immediately. A standard is prepared in methanol and dilutions of this standard assayed simultaneously. Such antibody may either be enzyme-labelled by direct covalent association or a suitable amplification step used to detect binding of the antibody. Analysis by this technique is based on the competition between phosphorothioate in the test sample and solid phase- bound phosphorothioate, for binding to antibody in solution. There is a decrease in the binding of antibody as the concentration of organophosphate increases in the test sample; this is manifest in decreasing absorbance of the coloured enzyme product, in this example. The concentration of organophosphate may be assessed as described in assay format 1. Clean-up of the extracts was not necessary.
An antibody incubation time of 30 minutes was used, together with 20 min (2,2'-azino bis (3-ethylbenzthiazoline-6-sulfonic acid)) substrate incubation time. The overall assay time can be reduced to 5-10 minutes or increased to 18 hours for batchwise analysis of large numbers of (several hundred) samples.
The data shown in Table 1 are potencies relative to the control pesticide (determined as relative concentration yielding 50% inhibition of antibody binding). Absolute amounts of control pesticide yielding 50% inhibition of antibody binding in competition ELISA are: P9 (0.001 ng), F7 (50 ng), Pll (2 ng).

Assay [2] has as its system Antibody F9 (phosphorothioate-specific antibody; control pesticide chlorpyrifos-methyl). In words: competition ELISA, assay format 1 (antibody on the solid phase, horseradish peroxidase-labelled phosphorothioate). Conditions: Antibody F9, assay format 1, control pesticide CP; 30 min incubation with enzyme conjugate. As for the experimental part:
(§1) The solid phase is coated with phosphorothioate-specific antibody. Preferentially the antibody is coated at 10µg/mL in 50mM sodium carbonate buffer, pH 9.6. Non-specific binding of immunoreactants is then minimized by treatment with a suitable protein or detergent, for example, 10mg/mL bovine serum albumin in 50mM sodium phosphate, pH 7.2 - 0.9% sodium chloride. The grain or food or other sample to be analyzed is extracted in neat methanol or ethanol, although other polar water-miscible solvents may be used; such as isopropanol, acetonitrile and acetone. Mixtures of water and these solvents may also be used. The grain, food or other extract is diluted five-fold in a protein and detergent-containing buffer (for example 10mg/mL bovine serum albumin or lmg/mL Teleostean fish skin gelatin in 0.05% (v/v) Tween in phosphate-buffered saline) applied to the solid phase and enzyme-labelled phosphorothioate (diluted similarly) is added immediately. A standard is prepared in methanol or ethanol and dilutions of this standard assayed simultaneously.
(§2) An incubation time of 30 min with chlorpyrifos-methyl (P9) or pirimiphos-methyl (P11) conjugated to horseradish peroxidase was used for the results shown in Table 1, together with 10 min chromogenic substrate (2,2'-azino-bis (3-ethyl benzthiazoline -6- sulfonic acid)) incubation time. The chromogen 3,3',5,5'-tetramethylbenzidine may also be used.
(§3) Analysis by this technique is based on the competition between phosphorothioate in the test sample and enzyme-labelled phosphorothioate for binding to phosphorothioate-specific antibody on the solid phase. There is a decrease in the binding of the enzyme-labelled phosphorothioate as the concentration of phosphorothioate increases in the test sample; this is manifest in decreasing absorbance of the coloured enzyme product. The concentration of phosphorothioate in an unknown sample may be determined by comparing the degree of inhibition of antibody binding caused by the addition of the sample extract with that resulting from the addition of known amounts of phosphorothioate. […]

Assay [3] relates to Antibody P11 (phosphorothioate-specific antibody; control pesticide pirimiphos-methyl). Described as above. Particulars: Antibody P11, assay format 1, control pesticide PY; 30 min incubation with enzyme conjugate. As for the experimental part:
as §1, §2, §3

On to `CCOP(=S)(OCC)Oc1nc(Cl)c(Cl)cc1Cl` [chlorpyrifos-ethyl], for which the “potencies relative to the control pesticide (relative concentration yielding 50% inhibition of antibody binding)” value in assay [1] is given as 0.07.

Consider `COP(=S)(OC)Oc1nc(Cl)c(Cl)cc1Cl` [chlorpyrifos-methyl (CP), chlorpyrifos-methyl], for which the “potencies relative to the control pesticide (relative concentration yielding 50% inhibition of antibody binding)” value in assay [1] and in assay [2] was 1.0 each time.

`COP(=S)(OC)Oc1ccc([N+](=O)[O-])cc1Cl` [dicapthon]: in assay [1], the “potencies relative to the control pesticide (relative concentration yielding 50% inhibition of antibody binding)” value stood at 0.01.

On to `COP(=S)(OC)Oc1ccc([N+](=O)[O-])c(C)c1` [fenitrothion (FN), fenitrothion], for which the “potencies relative to the control pesticide (relative concentration yielding 50% inhibition of antibody binding)” value in assay [1] was found to be 0.01.

On to `COP(=S)(OC)Oc1ccc([N+](=O)[O-])cc1` [methylparathion], for which the “potencies relative to the control pesticide (relative concentration yielding 50% inhibition of antibody binding)” value in assay [1] was 0.003.

As to `CCOP(=S)(OCC)Oc1cc(C)nc(N(CC)CC)n1` [pirimiphos-ethyl], the “potencies relative to the control pesticide (relative concentration yielding 50% inhibition of antibody binding)” value in assay [3] stood at 2.9.

`CCN(CC)c1nc(C)cc(OP(=S)(OC)OC)n1` [pirimiphos-methyl (PY), pirimiphos-methyl]: in assay [3], the “potencies relative to the control pesticide (relative concentration yielding 50% inhibition of antibody binding)” value is 1.0.
